Experimental findings from US7939569B1, “Aniline analogs as glycogen synthase activators” (Hoffmann-La Roche Inc., priority 2009, dated 2011) are described below.

The structures appear in SMILES notation.

The subject of this experiment is glycogen synthase. Kind of experiment: Glycogen Synthase (GS) Assay. The experiment is classed as biochemical. Conditions: for EC50: compound concentration needed to give 50% maximum activation; for GS SC200: compound concentration needed to stimulate 200% of the enzyme activity. As for the experimental part: Twelve μL per well of substrate solution containing glycogen (4.32 mg/'ml), 2.67 mM UDP-glucose, 21.6 mM phospho(enol)pyruvate and 2.7 mM NADH in 30 mM glycylglycine, pH 7.3 buffer was added into a polystyrene 384-well assay plate (BD Biosciences).
Compound solutions (8 μL/well) at various concentrations (0-300 μM) were added to the assay plate (columns 5-24). Compound solution contains 30 mM glycylglycine, pH 7.3, 40 mM KCl, 20 mM MgCl2, 9.2% DMSO, with (columns 15-24) or without (columns 5-14) 20 mM glucose 6-phosphate.
Enzyme solution (12 μL/well) containing glycogen synthase (16.88 μg/ml), pyruvate kinase (0.27 mg/ml), lactate dehydrogenase (0.27 mg/ml) in 50 mM Tris-HCl, pH 8.0, 27 mM DTT and bovine serum albumin (BSA, 0.2 mg/ml) was added to the assay plate (columns 3-24). As a blank control, enzyme solution without glycogen synthase was added into the top half wells of columns 1-2. To the bottom half wells of columns 1-2 were added a known activator, glucose 6-phosphate (at final concentration 5 mM) in addition to the enzyme solution. The reaction mixture was incubated at room temperature. The assay plate was then read for absorbance at 340 nm on an Envision reader every 3 minutes up to a total of 15 minutes.
The enzyme activity (with or without compound) was calculated by the reaction rate and represented by the optical density change (SOD) per minute. Percent stimulation of glycogen synthase activity by a compound at various concentrations was calculated by the following formula: % stimulation=100*Rs/Rt, Where Rs is the reaction rate of the enzyme in the presence of compound and Rt is the reaction rate of the enzyme in the absence of compound.
SC200 is defined as the compound concentration that is needed to stimulate 200% of the enzyme activity. EC50 is defined as the compound concentration that is needed to give 50% maximum activation.

As usually defined, the EC50 is the midpoint of the concentration-response curve. In the case of `O=C(Nc1cccc(COc2ccc(-c3ccc(F)cc3F)cc2)c1)[C@H]1CCC[C@H]1C(=O)O` (racemic) [Example 2, (trans)-2-[3-(2′,4′-Difluoro-biphenyl-4-yloxymethyl)-phenylcarbamoyl]-cyclopentanecarboxylic acid], a half-maximal effect (EC50) was put at 5.93 µM and the “GS SC200” value is 3.24 µM.
The matching figures for `O=C(Nc1cccc(COc2ccc(-c3ccc(F)cc3F)cc2)c1)C1CCC[C@H]1C(=O)O` (stereo in doubt) [Example 3, (1R,2R)-2-[3-(2′,4′-Difluoro-biphenyl-4-yloxymethyl)-phenylcarbamoyl]-cyclopentanecarboxylic acid]: 4.4 µM and 1.3 µM.
The matching figures for `O=C(O)C1CCC[C@@H]1C(=O)Nc1cccc(COc2ccc(-c3ccc(F)cc3F)cc2)c1` (stereo in doubt) [Example 4, (1S,2S)-2-[3-(2′,4′-Difluoro-biphenyl-4-yloxymethyl)-phenylcarbamoyl]-cyclopentanecarboxylic acid]: 6.15 µM and 2.09 µM.
The matching figures for `O=C(O)[C@H]1CCC[C@H]1C(=O)Nc1cccc(COc2ccc(-c3ccc(F)cc3F)cc2)c1` (stereo in doubt) [Example 6, (1S,2R)-2-[3-(2′,4′-Difluoro-biphenyl-4-yloxymethyl)-phenylcarbamoyl]-cyclopentanecarboxylic acid]: 3.14 µM and 0.77 µM.
Take `O=C(O)CCC(=O)Nc1cccc(COc2ccc(-c3ccc(F)cc3F)cc2)c1` [Example 1, N-[3-(2′,4′-Difluoro-biphenyl-4-yloxymethyl)-phenyl]-succinamic acid]: the midpoint of the response, the EC50, lay at 6.96 µM and the “GS SC200” value was determined as 2.69 µM.
The matching figures for `O=C(Nc1cccc(COc2ccc(-c3ccc(F)cc3F)cc2)c1)[C@H]1CCC[C@H]1C(=O)O` [Example 5, (1R,2S)-2-[3-(2′,4′-Difluoro-biphenyl-4-yloxymethyl)-phenylcarbamoyl]-cyclopentanecarboxylic acid]: 2.84 µM and 0.65 µM.
Taken in the same sequence, the figures for `COc1cc(F)c(F)cc1-c1ccc(OCc2cccc(N3CCC[C@H]3C(=O)O)c2)cc1` [Example 7, (S)-1-[3-(4′,5′-Difluoro-2′-methoxy-biphenyl-4-yloxymethyl)-phenyl]-pyrrolidine-2-carboxylic acid] were 3.71 µM and 0.7 µM.
On to `COc1cc(F)c(F)cc1-c1ccc(OCc2cccc(N3CCC[C@H]3CC(=O)O)c2)cc1` [Example 8, {(S)-1-[3-(4′,5′-Difluoro-2′-methoxy-biphenyl-4-yloxymethyl)-phenyl]-pyrrolidin-2-yl}-acetic acid], for which the response was half-maximal at 6.37 µM (EC50) and the “GS SC200” value was found to be 2.43 µM.
Taken in the same sequence, the figures for `COc1cc(F)c(F)cc1-c1ccc(OCc2cccc(N(CC(=O)O)C(C)=O)c2)cc1` [Example 9, {Acetyl-[3-(4′,5′-difluoro-2′-methoxy-biphenyl-4-yloxymethyl)-phenyl]-amino}-acetic acid] were 1.02 µM and 0.33 µM.
The matching figures for `CS(=O)(=O)Nc1cccc(COc2ccc(-c3cc(F)c(F)cc3F)cc2)c1` [Example 10, N-[3-(2′,4′,5′-Trifluoro-biphenyl-4-yloxymethyl)-phenyl]-methanesulfonamide]: 5.71 µM and 2.41 µM.
The matching figures for `COc1cc(F)c(F)cc1-c1ccc(OCc2cccc(NS(C)(=O)=O)c2)cc1` [Example 11, N-[3-(4′,5′-Difluoro-2′-methoxy-biphenyl-4-yloxymethyl)-phenyl]-methanesulfonamide]: 2.75 µM and 1.1 µM.
For the compound `O=S(=O)(Nc1cccc(COc2ccc(-c3cc(F)c(F)cc3F)cc2)c1)C(F)(F)F` [Example 12, C,C,C-Trifluoro-N-[3-(2′,4′,5′-trifluoro-biphenyl-4-yloxymethyl)-phenyl]methanesulfonamide], the response was half-maximal at 1.48 µM (EC50) and the “GS SC200” value is 0.95 µM.
Regarding `COc1cc(F)c(F)cc1-c1ccc(OCc2cccc(NS(=O)(=O)C(F)(F)F)c2)cc1` [Example 13, N-[3-(4′,5′-Difluoro-2′-methoxy-biphenyl-4-yloxymethyl)-phenyl]-C,C,C-trifluoromethanesulfonamide], the EC50 came out at 0.44 µM and the “GS SC200” value stood at 0.18 µM.
